Experimental data: patent US20030036049A1, “Optical method for testing sensitivity of cells” (MEDIS EL LTD., priority 2001, published 2003)

How the values were obtained:
[1] = test system: T47D human breast cancer cells; experiment: Viable cell count on hemocytometer with trypan blue exclusion; format: cell-based; details: low and high doses, 24, 48, 72 hours, FIG. 2 panel 181
Description: (§1) Cell culture: T80 and T47D human breast cancer cells were routinely cultured in DMEM supplemented with 10% fetal calf serum (FCS) (Biological Industries, Beit Haemek, Israel), 4 mM glutamine (Biological Ind.), 100 u/ml penicillin, 0.1 milligram/milliliter streptomycin, 12.5 units/milliliter nystatin (Biological Ind.) and 0.2 units/milliliter insulin (Lilly, Fegersheim, France).
(§2) About 2×10^5 cells were plated on 6 well-plates and left overnight to adhere. Two different concentrations of different drugs were added for a period of 24, 48 and 72 hours and then cells were harvested with trypsin, centrifuged, and resuspended in culture medium until staining.
(§3) Navelbine and 5-Fluorouracil (5FU) where added at low and high doses to T80 and T47D cells respectively for 24, 48, and 72 hours. The cells were counted on a hemocytometer, using trypan blue for exclusion of dead cells, for the purpose of Electro-optical scanner -independent estimation of drug efficacy.

[2] = test system: T47D human breast cancer cells; experiment: Rh123 fluorescence intensity, Electro-optical scanner (CellScan); format: cell-based
Description: as §2
(§4) Cell staining and loading: Three samples were prepared for each treatment at a specific time point and stained each with a different dye: fluorescein diacetate (FDA), rhodamine 123 (Rh123), and acridine orange (AO). […]
Rh123 (1 microgram/milliliter final concentration) was added to cells suspended in culture medium for 30 minutes at 37° C. Then the cells were washed twice with cold PBS supplemented with Mg^+2 and Ca^+2, loaded on the cell carrier and fluorescence intensity and polarization were measured by an Argon laser-based Electro-optical scanner. […]
(§5) For the excitation of FDA-stained cells an He/Cd laser was utilized (442 nm, excitation power of 4.5 microwatt) and emission measured at 527 nm. For the detection of AO and Rh123-stained cells an Argon laser was utilized (488 nm, excitation power of 15 microwatt) and emission measured at 530 nm.
(§6) The fluorescence emission of an area containing 20×20 wells was measured using a preset photon counting mode in which the same number of photons is counted for each cell (10,000), canceling differences in precision from strong and weak-emitting cells. […]

[3] = test system: T47D human breast cancer cells; experiment: FDA fluorescence polarization, Electro-optical scanner (CellScan); format: cell-based; details: FIG. 5 panel 191
Description: as §2, §4
(§7) Cells in suspension were stained for 5 minutes with FDA at a final concentration of 2.4 micromolar. The cells were then loaded on the cell carrier, washed twice with PBS supplemented with Mg^+2 and Ca^+2, and fluorescence intensity and polarization were measured by an He/Cd laser-based CellScan™ electro-optical scanner. […]
as §5, §6

[4] = test system: T47D human breast cancer cells; experiment: AO fluorescence intensity, Electro-optical scanner (CellScan); format: cell-based; details: FIG. 6 panels 195-197
Description: as §2
(§8) Cell staining and loading: Three samples were prepared for each treatment at a specific time point and stained each with a different dye: fluorescein diacetate (FDA), rhodamine 123 (Rh123), and acridine orange (AO).
(§9) AO is usually used as a direct probe for nucleic acids in fixed or permeabilized cells. When used under appropriate conditions of concentration and pH it gives bright green fluorescence when bound to double-stranded DNA and red deep fluorescence when bound to single strand RNA and can serve for estimation of cellular DNA content and transcriptional activity. AO was added directly to the cell carrier loaded with cells for 5 minutes at a final concentration of 10 microgram/milliliter, washed twice directly on the grid and measured on an Argon laser-based Electro-optical scanner. […]
(§10) For the excitation of FDA-stained cells an He/Cd laser was utilized (442 nm, excitation power of 4.5 microwatt) and emission measured at 527 nm. For the detection of AO and Rh123-stained cells an Argon laser was utilized (488 nm, excitation power of 15 microwatt) and emission measured at 530 nm. […]

[5] = test system: T80 human breast cancer cells; experiment: Viable cell count on hemocytometer with trypan blue exclusion; format: cell-based; details: low and high doses, 24, 48, 72 hours, FIG. 2 panel 180
Description: as §1, §2, §3

[6] = test system: T80 human breast cancer cells; experiment: FDA fluorescence polarization, Electro-optical scanner (CellScan); format: cell-based; details: FIG. 5 panel 190
Description: as §2, §4, §7, §5, §6

[7] = test system: T80 human breast cancer cells; experiment: AO fluorescence intensity, Electro-optical scanner (CellScan); format: cell-based; details: one day after starting treatment, FIG. 6 panels 192-194
Description: as §2, §8, §9, §10

[8] = test system: T80 human breast cancer cells; experiment: Rh123 fluorescence intensity, Electro-optical scanner (CellScan)

SMILES | effect on number of viable cells counted (trypan blue exclusion) [1] | change in Rh123 fluorescence intensity versus control untreated cells ([2]; FIG. 3 panel 183) | change of mean fluorescence intensity of Rh123 stained cells, measured one-cell-at-a-time ([2]; FIG. 4 panels 187-189) | change of mean polarization of FDA fluorescence [3] | change of mean fluorescence intensity of AO stained cells, measured one-cell-at-a-time [4] | effect on number of viable cells counted (trypan blue exclusion) [5] | change of mean polarization of FDA fluorescence [6] | change of mean fluorescence intensity of AO stained cells, measured one-cell-at-a-time [7] | change in Rh123 fluorescence intensity versus control untreated cells ([8]; FIG. 3 panel 182) | change of mean fluorescence intensity of Rh123 stained cells, measured one-cell-at-a-time ([8]; one day after starting treatment, FIG. 4 panels 184-186)
O=c1[nH]cc(F)c(=O)[nH]1 [5FU, 5-Fluorouracil] | mild and not significant effects | no significant change in fluorescence intensity | no significant change of mean fluorescence intensity | no significant change of mean fluorescence polarization | no significant change of mean fluorescence intensity | – | – | – | – | –
CCC1=C[C@@H]2CN(C1)Cc1c([nH]c3ccccc13)[C@@](C(=O)OC)(c1cc3c(cc1OC)N(C)[C@H]1[C@@](O)(C(=O)OC)[C@H](OC(C)=O)[C@]4(CC)C=CCN5CC[C@]31[C@@H]54)C2 [Navelbine] | – | – | – | – | – | cytotoxic effect | increase of mean polarization | decrease of mean fluorescence intensity | decrease in Rh123 fluorescence intensity is obvious and markedly significant | decrease of mean fluorescence intensity
